The values that follow come from PubChem BioAssay AID179 (DTP/NCI, 2004).

The assay deals with CEM cells HIV-1 protection, formazan growth assay. Description: NCI AIDS Antiviral Assay. The settings on record: for IC50: measured here: growth of uninfected CEM cells. An outline of the steps:
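Steps: treat uninfected and HIV-1-infected human CEM cells at five drug levels; quantify growth by soluble formazan; retest any compound reaching 50% protection; classify actives from the retest.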

Where “and” joins values, the source holds several entries; their conditions need not be identical. Equal values may be shown once. Calls of active or inactive are those of the source.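 How the source made its calls: active means compounds giving half or more protection of infected cells from virus-caused growth loss, again on retest; inactive means the rest.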

As to `O=C1COc2cc3c(cc2N1)SCCC(=O)N3`, the EC50 (commonly the concentration that produces a half-maximal response) is over 39.8 µM and the IC50 (usually the point on the concentration scale where inhibition reaches its midpoint) was over 39.8 µM. In the case of `CC(CC(=O)N(C)[C@H](C[C@@H](C)C(Cl)(Cl)Cl)c1nccs1)C(Cl)(Cl)Cl` (stereo partly specified), the result was inactive. Consider `CCCCCCCCCCCC(=O)OCCOCCOCCOCc1ccccc1`, for which the result was inactive. For `CCOc1cccc2cccnc12`, the EC50 is over 200 µM and the IC50 is over 200 µM. With `COC(=O)C(N)CSc1ccc([N+](=O)[O-])cc1[N+](=O)[O-]` (stereo unspecified), the EC50 is over 741 µM and the IC50 turned out to be 115 µM.

Consider `CCO/C=C(/C#N)C(=O)OC`, for which the result was inactive. On to `COc1ccc(P2(=S)OCCOP(=S)(c3ccc(OC)cc3)S2)cc1` (stereo unspecified), for which the EC50 is over 117 µM and the IC50 amounted to 3.98 µM. For `CC1(C)N=C(C(N)=O)c2ncn(CCCO)c2N1` the same measures were over 200 µM and over 200 µM. As for `NC1c2ccccc2Nc2ccccc21`, the EC50 was over 182 µM and the IC50 was determined as 1.29 µM.

For `C/C(CC(=O)Nc1ccc(C)c(C)c1)=N\N(c1ccccc1)c1ccccc1`, the EC50 is over 97.7 µM and the IC50 was over 97.7 µM.

As for `O=C1C=C(Nc2cc(Cl)ccc2Cl)c2ccccc2C1=O`, the EC50 is over 3.16 µM and the IC50 was over 3.16 µM. Consider `CC1(C)C(=O)c2ccccc2OC1N1CCN(C2Oc3ccccc3C(=O)C2(C)C)CC1` (stereo unspecified), for which the outcome was inactive. Take `CC[C@]12CN3CCc4c([nH]c5ccccc45)[C@@](C(=O)OC)(c4cc5c(cc4OC)N(C)[C@H]4[C@@](O)(C(=O)OC)[C@H](OC(C)=O)[C@]6(CC)C=CCN7CC[C@]54[C@@H]76)CC(C3)[C@H]1O2` (stereo partly specified): the EC50 was over 2 µM; the IC50 is 0.141 µM and 0.0447 µM.

In the case of `COc1ccc(C(=O)c2ccc(OC)c3ccccc23)c2ccccc12`, the EC50 was over 200 µM and the IC50 was determined as 1.51 µM.

Turning to `CN(C)N1C(=O)c2c(Cl)c(Cl)c(Cl)c(Cl)c2C1=O`, the EC50 was over 200 µM and the IC50 was 91.2 µM.

As for `CC(C)(CO)C(O)C(=O)NCCCO` (stereo unspecified), the EC50 is over 200 µM and the 50% inhibitory concentration (IC50) was over 200 µM. As for `COC(=O)CC1(O)C(/C=C/c2ccccc2)C(C(=O)OC)C(=O)C(C(=O)OC)C1C(=O)OC` (stereo unspecified), the EC50 is over 50.1 µM and the IC50 came out at 37.2 µM. For `CC(=O)Nc1ccc(/C=N/NC(=S)NC2CN3CCC2CC3)cc1` (stereo unspecified) the same measures were over 200 µM and over 200 µM. Regarding `Cc1cc2nc(CCC(=O)O)c(=O)[nH]c2cc1C`, the EC50 is over 1000 µM and the IC50 is over 1000 µM. Turning to `CC(=O)OC1C2C(=C(C)C(=O)O[C@@H]2c2ccoc2)[C@@]2(C)CC3CC(C)(C(=O)O3)C12` (stereo partly specified), the EC50 was over 200 µM and the IC50 was over 200 µM. Turning to `CC(=O)Nc1ccc(C(=O)N2N=C(C)/C(=C/c3cccc([N+](=O)[O-])c3)C2=O)cc1`, the EC50 is over 47.9 µM and the IC50 is over 47.9 µM.

Take `Cc1cccc(C)c1N1C(=O)C(=O)C(c2nc3ccccc3s2)/C(=N/NC(=O)NN)C1=O` (stereo unspecified): the outcome was inactive. For `CN1C(=O)[C@@]2(C=CC3(CC2)OCCO3)c2ccccc21`, the EC50 is over 200 µM and the IC50 is 35.5 µM. As for `Oc1cc(O)c2c(c1)O[C@@H](c1ccc(O)c(O)c1)[C@H](O)C2`, the EC50 is over 200 µM and the IC50 is over 200 µM.

In the case of `CC(=O)OCC12C(=O)C[C@@H](C)C3(CC(c4ccoc4)OC3=O)C1CCC(OC(C)=O)C21CO1` (stereo partly specified), the EC50 is over 200 µM and the IC50 came to 135 µM. The like results for `N=C1SC23CCCN2C(=O)C2(CCCN2C3=O)S1` were, in that order, over 891 µM and 174 µM. The like results for `COc1ccc(N=Nc2c(C)c(C#N)c(=S)n(C3OC(CO)C(O)C(O)C3O)c2C)cc1` (stereo unspecified) were, in that order, over 200 µM and 27.5 µM. Take `COc1ccc(-c2cc(-c3ccccc3)[nH]c(=S)c2C#N)cc1`: the EC50 is over 200 µM and the IC50 turned out to be 67.6 µM. For the molecule `CC(C)C1=CC23CCC4C(C)(C(=O)O)CCCC4(C)C2CC1C1C(=O)N(c2ccc(N4C(=O)C5C6CC7C8(C)CCCC(C)(C(=O)O)C8CCC7(C=C6C(C)C)C5C4=O)cc2)C(=O)C13` (stereo unspecified), the EC50 was over 55 µM and the IC50 came to 3.8 µM. For the molecule `CCc1cccc(C(C)C)c1NC(=O)C(=O)CC(=O)c1sc(Nc2c(CC)cccc2C(C)(C)C)nc1C`, the EC50 is over 200 µM and the IC50 amounted to 60.3 µM. The like results for `CC(O)CN1c2ccccc2Sc2ccc(Cl)cc21` (stereo unspecified) were, in that order, over 200 µM and 42.7 µM. On to `CCOC(=O)[C@@]1(C(C)=O)CC(C)=C(C)C[S@]1=O`, for which the EC50 is over 200 µM and the IC50 was over 200 µM.

For `COC(=O)c1ccc(/C=C/C2=CC(=O)C=CC2=O)cc1`, the EC50 is over 200 µM and the IC50 stood at 2.09 µM. In the case of `CC(=O)C1CC(C)=CCC12C(=O)Nc1ccccc12` (stereo unspecified), the EC50 was over 195 µM and the IC50 is over 195 µM. For `COC(=O)n1c(=O)nc2c3c(ncn21)Oc1c(c(-c2ccccc2)nn1-c1ccccc1)C3c1ccc(Cl)cc1` (stereo unspecified), the EC50 is over 100 µM and the IC50 turned out to be 2.34 µM.

For the molecule `O=C1C=C(Nc2ccccc2C(=O)CC(=O)C(=O)Nc2ccc(Cl)c(Cl)c2)c2ccccc2C1=O`, the EC50 is over 26.9 µM and the IC50 is over 26.9 µM. Turning to `CC(=O)N(CC(=O)Nc1ccc(S(N)(=O)=O)cc1)C(C)C`, the EC50 is over 200 µM and the IC50 was over 200 µM. `O=C(c1ccccc1)N1CCC(Nc2cccnc2)O1` (stereo unspecified) came in with an EC50 of over 200 µM and an IC50 of 105 µM. As to `COc1ccc2c(c1)OC[C@@H]1c3cc(O)c(OCc4ccccc4)cc3O[C@]21C`, the EC50 was over 200 µM and the IC50 was found to be 24 µM.

As for `Nc1ccc(-c2ccc(N)c(S(=O)(=O)O)c2)cc1S(=O)(=O)O`, the EC50 is over 724 µM and the IC50 was over 724 µM. For `Cn1c(=O)n(-c2c3ccccc3c(Cl)c3ccccc23)n(C(C)(C)C)c1=O`, the EC50 is over 100 µM and the IC50 was over 100 µM.

As for `FC1C2=C(SC1(F)F)C1CCC2C1` (stereo unspecified), the EC50 was over 200 µM and the IC50 was over 200 µM. With `CCOC(=O)CC1c2ccc(O)cc2OC(=O)C1c1ccc(N)cc1` (stereo unspecified), the EC50 was over 200 µM and the IC50 was over 200 µM. With `O=[N+]([O-])c1cc2c(cc1O)[nH]c1cccc([N+](=O)[O-])c12`, the EC50 was over 13.8 µM and the IC50 is over 13.8 µM. Regarding `Cn1nc(Br)c(=O)n(C(c2ccccc2)c2ccccc2)c1=O`, the EC50 is over 69.2 µM and the IC50 worked out at 22.9 µM. For the molecule `CNC(=O)OCC1=CC(=O)C(OC)=CC1=O`, the EC50 was over 200 µM and the IC50 was 10 µM. For `CCN(CC)CCc1nc(-c2ccccc2)no1` the same measures were over 200 µM and 27.5 µM. As to `O=S1C(=c2ccc(=C3Sc4ccccc4S3)cc2)Sc2ccccc21` (stereo unspecified), the outcome was inactive. `O=C1OC(=O)C2C3CC(C12)C1C3N1S(=O)(=O)c1ccccc1` (stereo unspecified): the EC50 was over 132 µM and the IC50 was over 132 µM. `O=C(C=P(c1ccccc1)(c1ccccc1)c1ccccc1)C1(C(=O)C=P(c2ccccc2)(c2ccccc2)c2ccccc2)CC1`: the EC50 was over 200 µM and the IC50 amounted to 9.55 µM.

Take `CC(C)(C)OC(=O)NCCNC(=O)CN(CC(=O)O)C1CCCCC1N(CC(=O)O)CC(=O)O` (stereo unspecified): the EC50 is over 200 µM and the IC50 is 170 µM.
